Where “and” joins values, the source holds several entries; their conditions need not be identical. Identical values can stand only once. Like-named read-outs stand apart in the source and are kept apart here.
Key:
[1] = tested on: patients with relapsed or refractory lymphoma; experiment: Treatment-emergent adverse events, phase 1 study 0610–01; format: in vivo
Source text: Study 0610–01 was a first-in-human phase 1, multi-center, open-label, dose-escalation study of pelabresib (CPI-0610) in patients with relapsed or refractory lymphoma (NCT01949883).
Eligible patients for treatment with pelabresib were adults with relapsed non-Hodgkin or Hodgkin lymphoma after at least one prior therapy or who were not eligible for high-dose chemotherapy and autologous stem cell transplantation or had refused high-dose chemotherapy and autologous stem cell transplantation. Patients were required to have platelet count ≥75 × 10^9/L, absolute neutrophil count ≥1.0 × 10^9/L, and Eastern Cooperative Oncology Group performance status of 2 or less.
(§1) Pelabresib was administered once daily (QD) for 14 days followed by a 7-day break, in continuous 21-day cycles to prevent/ameliorate thrombocytopenia. Cohorts of 3 to 6 patients were sequentially enrolled with increasing doses of pelabresib (6, 12, 24, 48, 80, 120, 170, 230, and 300 mg with the capsule formulation and 125 mg and 225 mg with the micronized tablet formulation) until the MTD was determined. Pelabresib was administered under fasting conditions (no food intake 2 hours before until 1 hour after study drug administration).
(§2) The primary objective of the study was to determine the MTD of pelabresib with characterization of dose-limiting toxicities (DLT) as a primary endpoint. Secondary objectives included adverse events (AE) and serious adverse events (SAE); tumor response according to 2007 Revised Response Criteria for Malignant Lymphoma ([13]); plasma concentration of pelabresib; PK parameters; changes in expression of MYC and other genes sensitive to BET inhibition; and changes in levels of selected mRNAs that are expressed in PBMCs and are sensitive to BET inhibition.
(§3) The MTD of pelabresib was defined as the highest dose that could be given without causing DLT in 33% or more of the patients treated at that dose (capsules or tablets). Dose-escalation followed a traditional “3 + 3” design based on the frequency of DLT. All patients who were treated with at least 1 dose of pelabresib were included in the Safety Population and used for all tabulations of demographic information, baseline characteristics, safety, PK, pharmacodynamic, and efficacy analyses.

[2] = tested on: patients with relapsed or refractory lymphoma; experiment: Dose-limiting toxicities / MTD determination (3 + 3 dose escalation); format: in vivo
Experimental: as §1, §2, §3

[3] = tested on: relapsed or refractory lymphoma; experiment: Tumor response, 2007 Revised Response Criteria for Malignant Lymphoma; format: in vivo, human
Source text: as §2, §3

IL8 = IL8 mRNA expression in patient whole blood (qPCR); format: in vivo, human
Source text: (§4) Whole (peripheral) blood samples were also collected at selected time points that coincided with PK sampling. Blood from patients was drawn into PAXgene blood RNA tubes (Becton Dickinson) at the clinical sites and shipped frozen to the Massachusetts General Hospital (MGH, Boston, MA) for processing. RNA was purified using a PAXgene Blood RNA Kit IVD (Qiagen) according to the manufacturer's protocol and quantitated using a Nanodrop 8000 (Thermo Scientific). RNA isolated from PBMCs was used to synthesize cDNA for qPCR analysis and gene expression was assessed by qPCR using a CCR1 or IL8 TaqMan assay. Housekeeping genes were assessed using B2M TaqMan assay, PPIB Universal Probe Library (UPL) or TaqMan assay. Relative gene expression for CCR1 and IL8 was determined after normalization to the geometric mean of the two housekeeping genes (B2M and PPIB).

CCR1 = CCR1 mRNA expression in patient whole blood (qPCR); format: in vivo, human
Source text: as §4

[4] = tested on: IL8 and CCR1 gene expression; experiment: PK/PD analysis of maximum gene suppression versus exposure (Emax model); format: in vivo, human
Experimental: To further explore the relationship between pelabresib exposure and suppression of gene expression, individual maximum gene suppression (the nadir of individual gene expression versus time profiles) was plotted as a continuous function of individual Cmax and AUC for both CCR1 and IL8. […] In total, based on this analysis, pharmacodynamic responses of at least 50% suppression in gene expression are evident at AUC and Cmax as low as 4,000 ng/hr/mL and 500 ng/mL, respectively. These exposures were achieved on average at capsule doses of 80 mg and above and were exceeded at both tablet doses.

platelet count = experiment: Platelet count values versus pelabresib dose; format: in vivo, human; settings: QD 14 days on, 7 days off
Source text: To accommodate for different baseline platelet count values in different patients, changes in platelet count values were expressed as a fraction or ratio of the baseline value. There was a strong correlation between the Day 14:Day 1 platelet count ratio and pelabresib dose (R^2 = 0.81).

[5] = human, in vivo
Experimental: (§5) To characterize the plasma PK of pelabresib for the first dose and at steady state for multiple dosing, blood samples were taken before and at 0.5, 1, 1.5, 2, 3, 4, 6, 8, and 24 hours after the initial dose; before dosing on Day 8; before and at 0.5, 1, 1.5, 2, 3, 4, 6, 8, 24, 48, 72, 96, and 120 hours after the Day 14 dose; and prior to dosing on Day 1 of Cycle 2. Blood samples were centrifuged within 30 minutes of collection to harvest the plasma which was promptly stored in cryovials maintained at −80°C. The concentration of CPI-0610 in plasma samples was determined by reverse-phase high performance liquid chromatography with tandem mass spectrometric detection. The assay was validated and applied to the analysis of study samples according to the recommendations in the current FDA guidance. At the lowest concentration included in the calibration curves, which was 0.25 ng/mL, interday accuracy was within 0.3% of the nominal concentration and the precision was 3.0%. Interday accuracy ranged from 99.9 to 101.2% and the precision ranged from 4.0 to 6.0% for all other calibration standards. Actual time points were calculated as the difference between the blood sample collection time and the time that the drug was taken. The plasma concentration–time data were analyzed by noncompartmental methods using WinNonlin version 5.0.1 (Pharsight Corp). Area under the plasma concentration–time curve from the time of dosing to the time of last sample collected prior to administration of the next dose (AUC0–24) was estimated using the linear-log trapezoidal method. Apparent oral clearance (CL/F) was calculated as the dose divided by the AUC0–24 for the dose given on Day 14. Pharmacokinetic parameters are reported as the geometric mean [geometric coefficient of variation (CV%)] of the values for individual patients at each dose level unless otherwise indicated.

MYC = tested on: MYC; parameters: method as in PMID 21949397; settings: cited from earlier work
[6] = tested on: ABC- diffuse large B-cell lymphoma (DLBCL) and Burkitt lymphoma (BL) cell lines; settings: preclinical studies; cited from earlier work
NF-κB signaling = settings: preclinical studies; cited from earlier work
[7] = crystalline form of pelabresib; cited from earlier work
[8] = parameters: method as in PMID 21949397; settings: cited from earlier work
clinical = settings: human, in vivo
Experimental: as §5

[9] = Plasma pharmacokinetics (LC-MS/MS, noncompartmental)
Experimental: as §5

[10] = including both tablet dose levels
[11] = whole blood, 2, 6 and 8 hours after administration
[12] = individual maximum gene suppression, inhibitory Emax model

Cc1noc2c1-c1ccccc1C(c1ccc(Cl)cc1)=N[C@H]2CC(N)=O [pelabresib]
Patients who died while on study ([1]; cause disease progression, none considered related to the investigational product): 9 (14.1%) patients (%)
SAE disease progression ([1]; grade 5): 7 patients
Anemia of Grade 3 or higher ([1]; human, in vivo): 7 (10.9%) patients (%)
Diarrhea of Grade 3 or higher ([1]; human, in vivo): 4 (6.3%) patients (%)
Gastrointestinal TEAEs ([1]; human, in vivo): 43 (67.2%) patients (%)
Patients with at least 1 TEAE ([1]; human, in vivo): 64 patients
Patients with at least 1 TEAE of Grade 3 or higher intensity ([1]; human, in vivo): 44 (68.8%) patients (%)
SAE diarrhea ([1]; human, in vivo): 4 patients
SAE disease progression ([1]; human, in vivo): 1 patient
SAE pain ([1]; human, in vivo): 2 patients
SAE pneumonia ([1]; human, in vivo): 2 patients
TEAE Anemia ([1]; human, in vivo): 16 (25.0) n (%)
TEAE Decreased appetite ([1]; human, in vivo): 17 (26.6) n (%)
TEAE Diarrhea ([1]; human, in vivo): 12 (18.8) n (%)
TEAE Dysgeusia ([1]; human, in vivo): 10 (15.6) n (%)
TEAE Fatigue ([1]; human, in vivo): 23 (35.9) n (%)
TEAE Hyperglycemia ([1]; human, in vivo): 12 (18.8) n (%)
TEAE Lymphopenia ([1]; human, in vivo): 13 (20.3) n (%)
TEAE Nausea ([1]; human, in vivo): 18 (28.1) n (%)
TEAE Thrombocytopenia events ([1]; human, in vivo): 29 (45.3) n (%)
TEAE Vomiting ([1]; human, in vivo): 13 (20.3) n (%)
TEAEs that led to treatment discontinuation ([1]; human, in vivo): 9 (14.1%) patients (%)
Thrombocytopenia events of Grade 3 or higher ([1]; human, in vivo): 13 (20.3%) patients (%)
Treatment-emergent SAEs ([1]; human, in vivo): 27 (42.2%) patients (%)
Recommended phase 2 dose (RP2D) ([2]; human, in vivo, 14 days): 125 mg
DLTs: gastrointestinal (GI) events ([2]; human, in vivo, 21 days): 2
DLTs: hematologic events ([2]; human, in vivo, 21 days): 5
DLTs: rash ([2]; human, in vivo, 21 days): 1
Total DLT events considered for dose-escalation ([2]; human, in vivo, 21 days): 8
MTD ([2]; tablet, QD for 14 days with a 7-day break): 225 mg
Overall response rate (CR + PR) ([3]; 4 of 64 patients): 6.2%
Patients with prolonged (>6 months) stable disease ([3]; 64 patients): 5 patients
Best overall response CR ([3]; Overall N = 64): 2 (3.1%) n (%) and 2 (3.1) n (%)
Best overall response PR ([3]; Overall N = 64): 2 (3.1%) n (%) and 2 (3.1) n (%)
Best overall response SD ([3]; Overall N = 64): 21 (32.8%) n (%) and 21 (32.8) n (%)
Overall response rate (CR + PR) ([3]; Overall N = 64, all doses and formulations): 4 (6.2) n (%)
Lowest dose at which complete remission was achieved ([3]; QD capsule): 48 mg
Median duration of response (CR or PR), (range) ([3]; patients with CR or PR): 8.4 (6.1–46.1) weeks
Time to treatment (CR or PR) ([3]; patients with CR or PR): 4–18 cycles
Time to response (CR or PR) ([3]; patients with CR or PR, 21-day cycles): 2–6 cycles
Dose level with maximum reduction of IL8 expression (IL8; capsule): 120 mg
Capsule doses at whose exposures suppression of IL8 was much more apparent (IL8; [10]): greater than or equal to 120 mg
Earliest time of decreased IL8 expression postdose (IL8; whole blood): ≤ 2 h
Capsule dose above which appreciable changes in expression of IL8 were shown (IL8; [11]): above 120 mg
Capsule doses at whose exposures suppression of CCR1 was much more apparent (CCR1; [10]): ≥ 170 mg
Earliest time of decreased CCR1 expression postdose (CCR1; whole blood): ≤ 2 h
Capsule dose above which appreciable changes in expression of CCR1 were shown (CCR1; [11]): > 170 mg
Capsule doses at which these exposures (AUC 4,000, Cmax 500) were achieved on average ([4]; exceeded at both tablet doses): ≥ 80 mg
AUC at which at least 50% suppression in gene expression is evident [4, 12]: ≥ 4,000 ng/hr/mL
Cmax at which at least 50% suppression in gene expression is evident [4, 12]: ≥ 500 ng/mL
Character of decreases in platelet count values (platelet count): dose dependent, reversible, and non-cumulative
Factor to convert tablet doses to capsule doses [5]: 1.34
Range of time of peak plasma concentrations [5]: 0.9 to 7.9 h
Mean AUC0–24 ([5]; 225 mg): 20,700 ng/h/mL
Accumulation at most ([5]; 14 days): ≤ 40%
Accumulation, mean (±SD) ([5]; 14 days): 4.3 ± 1.0%
Time by which MYC expression had returned to its baseline value (MYC; single 30 mg/kg oral dose ref 11): ≤ 12 h
Maximum inhibition of MYC expression in tumor tissue (MYC; single 30 mg/kg oral dose, 4 hours postdosing, immunodeficient mice ref 11): 75%
Time of maximum inhibition of MYC expression (MYC; single 30 mg/kg oral dose, earliest postdosing time point assessed ref 11): 4 h
Effect on viability [6]: loss of viability
Effect on NF-κB signaling activity (NF-κB signaling): downregulation
Aqueous solubility [7]: low
Clearance in mice [8]: rapid clearance
Cmax (clinical; 225 mg): 2020 ng/mL
bioavailability (clinical; Exposure (bioavailability) of tablet greater than capsule): 60%
half-life (clinical; Half-life (mean apparent terminal phase)): ~15 h
Tmax (clinical; Median time of peak plasma concentrations): 1.9 h
Tmax (clinical; Median time to maximum plasma concentrations): 2 h
Tmax (clinical; Range of time of peak plasma concentrations): 0.5 to 7.4 h
half-life (clinical; Terminal half-life, geometric mean (geometric CV)): 15.3 h
Accumulation, mean (±SD) ([9]; capsule formulation, 14 days of continuous QD dosing): 20.5 ± 7.2%
half-life ([9]; human, plasma, oral, Terminal half-life, geometric mean (geometric CV), capsule): 11.6 h
Tablet dose approximately corresponding to the 120 mg capsule dose level ([9]; in vivo): ~75 mg
Apparent oral clearance, geometric mean (geometric CV) ([9]; tablet dosage form, Day 14): 12.3 (27.2%) L/h
